Each structure is given as a SMILES string. Bounds are passed on as bounds.

Consider seven compounds from US20010056084A1, “MGluR5 antagonists for the treatment of pain and anxiety” (priority 1998, published 2001).

The test system of assay [1] is naive rat hind paw. Nature of the assay: naive rat hind paw test of mechanical hyperalgesia (Randall and Selitto), glutamate receptor agonists. In kind it is in vivo.
Assay [2] has as its system DHPG-induced hyperalgesia in the rat hind paw. As to the kind of experiment: DHPG-induced hyperalgesia in the rat hind paw (Randall and Selitto), co-administration. In kind it is in vivo. Particulars: co-administration with DHPG to the rat hind paw.
The subject of assay [3] is rat. Particulars: intrathecally administered; cited from earlier work.

Turning to `NC1(C(=O)O)CCC2C(C(=O)O)C21` (racemic) [LY 314582, (±)-2-aminobicyclo[3.1.0]hexane-2,6-dicarboxylic acid], the “rank order of potency as hyperalgesic agents” value (from here on “rank order of potency”) in assay [1] was “(LY 314582)>L-4-phosphono-2-amino-butiric acid (L-AP4)”.

With `N[C@H](C(=O)O)c1ccc(C(=O)O)cc1` [(S)-4C-PG, (S)-4-carboxyphenylglycine], the “inhibition of DHPG-induced hyperalgesia” value in assay [2] is “limited effect”.

Take `Cc1o[nH]c(=O)c1CC(N)C(=O)O` (centres unmarked) [AMPA]: in assay [1], the “rank order of potency” value was “AMPA>(±)-2-aminobicyclo[3.1.0]hexane-2,6-dicarboxylic acid (LY 314582)”.

For the compound `NC(C(=O)O)c1cc(O)cc(O)c1` (centres unmarked) [DHPG, 3,5-dihydroxyphenyiglycine], the “rank order of potency” value in assay [1] was “DHPG>NMDA”. The spontaneous nociceptive responses entry in assay [3] was “induced an increase in spontaneous nocicepfive responses”.

As for `N[C@@H](CCP(=O)(O)O)C(=O)O` [L-AP4, L-4-phosphono-2-amino-butiric acid], in assay [1], the “rank order of potency” value is “>L-4-phosphono-2-amino-butiric acid (L-AP4)”.

For `CN[C@H](CC(=O)O)C(=O)O` [NMDA], in assay [1], the “rank order of potency” value was “NMDA>AMPA”.

With `N[C@@H](CCC(=O)O)C(=O)O` [glutamate], in assay [1], the “rank order of potency” value was “glutamate ˜2-chloro-3-hydroxyphenylglycine (CHPG)”.
